Measured values published in US11780839B2, “Compounds for treating Huntington's disease” (PTC THERAPEUTICS, INC., priority 2018, dated 2023).

Test system: Endogenous Huntingtin Protein
Experiment: Endogenous Huntingtin Protein Assay (ELISA-based Meso Scale Discovery electrochemiluminescence)
Assay type: cell-based
Conditions: MSD electrochemiluminescence, Table 1
How it was run: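 Sandwich MSD electrochemiluminescence immunoassay. Capture used MW1 (expanded polyglutamine) or MAB2166 antibody coated at 1 μg/mL overnight at 4 °C. Samples were bound overnight at 4 °C, then a rabbit monoclonal detection antibody and SULFO-TAG anti-rabbit, each at 0.25 μg/mL, were applied for 1 h at room temperature.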

Row | SMILES | IC50
1 | CN(c1cnc(-c2ccc(-c3ccccn3)cc2O)nn1)C1CC(C)(C)NC(C)(C)C1 [Cpd 393, 2-{6-[methyl(2,2,6,6-tetramethylpiperidin-4-yl)amino]-1,2,4-triazin-3-yl}-5-(pyridin-2-yl)phenol] | ≤ 100 nM
2 | CN(c1cnc(-c2ccc(-c3ccc4c(cnn4C)n3)cc2O)nn1)C1CC(C)(C)NC(C)(C)C1 [Cpd 394, 5-(1-methyl-1H-pyrazolo[4,3-b]pyridin-5-yl)-2-{6-[methyl(2,2,6,6-tetramethylpiperidin-4-yl)amino]-1,2,4-triazin-3-yl}phenol] | ≤ 100 nM
3 | CC1(C)CC(Nc2cnc(-c3ccc(-c4cn[nH]c4)cc3O)nn2)CC(C)(C)N1 [Cpd 396, 5-(1H-pyrazol-4-yl)-2-{6-[(2,2,6,6-tetramethylpiperidin-4-yl)amino]-1,2,4-triazin-3-yl}phenol] | ≤ 100 nM
4 | Oc1cc(-c2cn[nH]c2)ccc1-c1cnc(N2CC[C@@H](NC3CCC3)C2)nn1 [Cpd 399, 2-{3-[(3R)-3-(cyclobutylamino)pyrrolidin-1-yl]-1,2,4-triazin-6-yl}-5-(1H-pyrazol-4-yl)phenol] | ≤ 100 nM
5 | Oc1cc(-c2cn[nH]c2)ccc1-c1cnc(N2CC[C@H](NC3CCC3)C2)nn1 [Cpd 400, 2-{3-[(3S)-3-(cyclobutylamino)pyrrolidin-1-yl]-1,2,4-triazin-6-yl}-5-(1H-pyrazol-4-yl)phenol] | ≤ 100 nM
6 | CC1(C)CC(Nc2cnc(-c3ccc(-n4nccn4)cc3O)nn2)CC(C)(C)N1 [Cpd 401, 2-{6-[(2,2,6,6-tetramethylpiperidin-4-yl)amino]-1,2,4-triazin-3-yl}-5-(2H-1,2,3-triazol-2-yl)phenol] | ≤ 100 nM
7 | CN(c1cnc(-c2ccc(-c3ncccn3)cc2O)nn1)C1CC(C)(C)NC(C)(C)C1 [Cpd 402, 2-{6-[methyl(2,2,6,6-tetramethylpiperidin-4-yl)amino]-1,2,4-triazin-3-yl}-5-(pyrimidin-2-yl)phenol] | ≤ 100 nM
8 | Oc1cc(-c2cn[nH]c2)ccc1-c1cnc(N2CCC(CNC3CC4CCC(C3)O4)C2)nn1 (centres unmarked) [Cpd 405, 2-[3-(3-{[(8-oxabicyclo[3.2.1]octan-3-yl)amino]methyl}pyrrolidin-1-yl)-1,2,4-triazin-6-yl]-5-(1H-pyrazol-4-yl)phenol] | ≤ 100 nM
9 | Cn1cc(-c2ccc(-c3cnc(N4CC[C@@H](NC5CCC5)C4)nn3)c(O)c2)cn1 [Cpd 406, 2-{3-[(3R)-3-(cyclobutylamino)pyrrolidin-1-yl]-1,2,4-triazin-6-yl}-5-(1-methyl-1H-pyrazol-4-yl)phenol] | ≤ 100 nM

Further lines, results first:

Row | IC50 | SMILES
10 | ≤ 100 nM | Oc1cc(-c2cn[nH]c2)ccc1-c1cnc(N2CCC(CNC3CCOC3)C2)nn1 (centres unmarked) [Cpd 395, 2-[3-(3-{[(oxolan-3-yl)amino]methyl}pyrrolidin-1-yl)-1,2,4-triazin-6-yl]-5-(1H-pyrazol-4-yl)phenol]
11 | ≤ 100 nM | Oc1cc(-c2cn[nH]c2)ccc1-c1cnc(N2CC[C@@H](CNC3CCOCC3)C2)nn1 [Cpd 397, 2-{3-[(3S)-3-{[(oxan-4-yl)amino]methyl}pyrrolidin-1-yl]-1,2,4-triazin-6-yl}-5-(1H-pyrazol-4-yl)phenol]
12 | ≤ 100 nM | Oc1cc(-c2cn[nH]c2)ccc1-c1cnc(N2CC[C@H](CNC3CCOCC3)C2)nn1 [Cpd 398, 2-{3-[(3R)-3-{[(oxan-4-yl)amino]methyl}pyrrolidin-1-yl]-1,2,4-triazin-6-yl}-5-(1H-pyrazol-4-yl)phenol]
13 | ≤ 100 nM | Oc1cc(-c2cn[nH]c2)ccc1-c1cnc(N2CCC(CNC3CCOCC3F)C2)nn1 (centres unmarked) [Cpd 403, 2-[3-(3-{[(3-fluorooxan-4-yl)amino]methyl}pyrrolidin-1-yl)-1,2,4-triazin-6-yl]-5-(1H-pyrazol-4-yl)phenol]
14 | ≤ 100 nM | Oc1cc(-c2cn[nH]c2)ccc1-c1cnc(N2CCC(CNC3CCCOC3)C2)nn1 (centres unmarked) [Cpd 404, 2-[3-(3-{[(oxan-3-yl)amino]methyl}pyrrolidin-1-yl)-1,2,4-triazin-6-yl]-5-(1H-pyrazol-4-yl)phenol]
